# According to patent US6916797B2, “α-arylethylpiperazine derivatives as neurokinin antagonists” (UCB, S.A., priority 2000, dated 2005):
# pIC50: −log10 of the molar value.
# Assays:
# [1] = test system: verapamil binding site of the L-type calcium channel; assay: Inhibition of [3H]D888 binding to the verapamil binding site of the L-type calcium channel (rat cerebral cortex membranes); details: 10 μmol/l of test substance
# Experimental: 200-250 g male Sprague-Dawley rats are sacrificed by decapitation. Cerebral cortices are quickly dissected on ice and homogenized in a 20 mmol/l Tris-HCl (pH 7.4) buffer containing 250 mmol/l sucrose (buffer A). The homogenate is centrifuged at 30,000 g for 15 min at 4° C. The resulting crude membrane pellet is resuspended in a 50 mmol/l Tris-HCl (pH 7.4) buffer and incubated 15 min at 37° C. before being centrifuged at 30,000×g for 15 min at 4° C. After two more washes under the same conditions, the final pellet is resuspended in buffer A at a protein concentration ranging from 15 to 25 mg/ml and stored in liquid nitrogen.
# Binding experiments are essentially performed according to Reynolds J. et al., J. Pharmacol. Exp. Ther. (1986), 237, 731-738. (1986) with slight modifications.
# Membranes (120-175 μg/assay) are incubated at 25° C. for 60 min in 0.5 ml of a 50 mmol/l Tris-HCl buffer (pH 7.4) containing 2 mmol/l MgCl2, 0.2 to 0.4×10-9 mol/l of [^3H]D888 (85 Ci/mmol; Amersham, Belgium) and 10 μmol/l of the test substance. The non specific binding (NSB) is defined as the residual binding observed in the presence 10 μM verapamil. Membrane-bound and -free radioligands are separated by rapid filtration through glass fiber filters (equivalent to Whatman GF/C or GF/B; VEL, Belgium) presoaked in 0.1% polyethyleneimine to reduce non specific binding. Samples and filters are rinsed by at least 6 ml of 50 mmol/l Tris-HCl (pH 7.4) buffer. […] The radioactivity trapped onto the filters is counted by liquid scintillation in a β-counter.
# The inhibition of the radioligand specific binding is calculated as follows: [formula] • where BI and Bo represent the binding observed in the presence and absence of the test substance respectively; and • BNS is the non specific binding.
# Data analysis is performed by a computerized non linear curve fitting method using a set of equations describing several binding models assuming competitive interactions between ligands (Weiland G. A. and P. B. Molinoff Life Science (1981), 29, 313-330; Molinoff P. et al. (1981) Life Sci., 29, 427-443).
# [2] = test system: isolated rat aorta contracted by 100 mM KCl; assay: Effect of compound on isolated rat aorta contracted by 100 mM KCl; details: 10^−5 M; contraction by 100 mM KCl
# Experimental: Rat thoracic aorta depolarized by 100 mM KCl develops a contraction induced by an influx of Ca^2+ into the smooth muscle cell. An inhibition of this contraction could predict a Ca^2+ antagonist activity.
# The method was adapted from Polster P. et al., J. Pharmacol. Exp. Ther. (1990), 255, 593: rings of thoracic aorta were prepared from male Wistar rats (250-400 g) and mounted under an optimal resting tension of 2 g in 10 ml organ baths containing modified Krebs' solution (NaCl 112 mM, NaHCO3 25 mM, KCl 5 mM, MgSO4 1.2 mM, CaCl2 2.5 mM, KH2PO4 1 mM and glucose 11.5 mM, pH 7.4). The bathing solution was maintained at a temperature of 37° C. and gassed with 95% O2 and 5% CO2. Isometric contractions were measured with a force transducer connected to an amplifier. A computer system was used to control data acquisition and fluid circulation through electrovalves. Drugs were manually injected into the bath.
# Each ring was allowed to equilibrate for 60 min in the modified Krebs' solution. […] After obtaining two reproducible control contractions, a 3rd contraction was induced and the test compound was added to the bathing medium for 2 hours. Only preparation in which the contractions were matched were used. Each tissue received only one concentration of the test compound. Appropriate control experiments were conducted in order to test the effect of the solvant.
# To normalize data, the change in tension due to the drug was compared to the change of tension due to the solvant and expressed as percentage of the induced relaxation of the initial contraction. Raw data were processed by a computer system and the pD′2 value was calculated following the method of Van Rossum J. M. et al., Arch. Int. Pharmacodyn. Ther. (1963), 143, 299.
# NK1 receptors = NK1 receptors (Homo sapiens, UniProt P25103); assay: Binding of [4,5-3H-Leu10] substance P to human recombinant NK1 receptors expressed in CHO cell membranes; parameters: host or cells: CHO cells; details: pIC50 = -log IC50, concentration inhibiting by 50% the specific binding of [4,5-3H] substance P; tested as the free base/salt given in c1
# Experimental: The following test was designed to assess the affinity of test substances for human recombinant NK1 receptors expressed in Chinese Hamster Ovarian (CHO) cells.
# CHO cells expressing the human recombinant NK1 receptor are used. The cells were obtained from Euroscreen (Brussels, Belgium).
# Cells expressing the human NK1 receptor are routinely cultured in 175 cm2 flasks containing 75 ml of medium F12 (Ham) enriched with 2 mmol/l L-glutamine, 100 IU/ml penicilline, 100 μg/ml streptomycine, 1% sodium pyruvate, 2.5 μg/ml fungizone amphotericin B, 400 μg/ml geneticin and supplemented with 10% foetal calf serum. […] When subcultured, the cells are seeded at a concentration of 50,000 cells/cm2.
# Confluent cells are gently scraped and resuspended in 25 ml of phosphate buffered saline without calcium and magnesium. The cellular suspension is centrifuged at 1500×g for 3 min (4° C.). The cell pellet is homogenized in a 15 mmol/l Tris-HCl (pH 7.5) buffer, 2 mmol/l MgCl2, 0.3 mmol/l EDTA, 1 mmol/l EGTA. The crude membrane fraction is collected by two consecutive centrifugation steps at 40,000×g for 25 min (4° C.). The final pellet is resuspended in 20 mmol/l Tris-HCl (pH 7.4), 250 mmol/l sucrose buffer at a protein concentration ranging from 2 to 6 mg/ml and stored in liquid nitrogen. • 1.2.2. Test Design
# The inhibition constant (Ki) is determined using increasing concentrations of the test substance. The concentration range usually encompasses 6 log units with variable steps (0.3 to 1 log). Assays are performed in mono- or duplicate.
# Membranes are incubated at 25° C. for 60 min in 0.5 ml of a 50 mmol/l Tris-HCl buffer (pH 7.4) containing 2 mmol/l MgCl2, 100 μg/ml bacitracine, 0.1 to 0.4×10^−9 mol/l of [4,5^3H-Leu^10] substance P (specific activity>100 Ci/mmol) and increasing concentrations of the test substance. […] Membrane-bound and free radioligands are separated by rapid filtration through glass fiber filters (equivalent to Whatman GF/C or GF/B; VEL, Belgium) presoaked in 0.1% polyethyleneimine to reduce non specific binding. Samples and filters are rinsed by at least 6 ml of 50 mmol/l Tris-HCl (pH 7.4) buffer.
# Initial values for the different variables may be provided by the experimenter.
# Sequence of NK1 receptors (P25103 whole entry): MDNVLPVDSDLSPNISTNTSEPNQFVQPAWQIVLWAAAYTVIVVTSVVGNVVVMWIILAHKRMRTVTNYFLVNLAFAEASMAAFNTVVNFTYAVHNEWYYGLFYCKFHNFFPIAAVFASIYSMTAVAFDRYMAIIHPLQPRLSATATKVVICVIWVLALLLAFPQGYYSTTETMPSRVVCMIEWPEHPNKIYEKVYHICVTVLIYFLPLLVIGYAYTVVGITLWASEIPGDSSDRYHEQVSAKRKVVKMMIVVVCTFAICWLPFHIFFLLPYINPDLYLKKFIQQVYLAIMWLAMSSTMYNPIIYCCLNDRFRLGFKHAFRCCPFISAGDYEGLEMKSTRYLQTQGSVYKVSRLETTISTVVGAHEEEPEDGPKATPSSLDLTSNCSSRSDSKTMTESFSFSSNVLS
SMILES,% inhibition of [3H]D888 binding to the verapamil binding site of the L-type calcium channel [1],Result: effect of compound on isolated rat aorta contracted by 100 mM KCl [2],pIC50 (NK1 receptors)
O=C(O)CN1CCN([C@H](COCc2cc(C(F)(F)F)cc(C(F)(F)F)c2)c2ccccc2)CC1 [Compound 230],0 (0: inhibition < 20%),inactive à 10^−5 M,7.30
O=C(O)CCCN1CCN(C(COCc2cc(C(F)(F)F)cc(C(F)(F)F)c2)c2ccccc2)CC1 (racemic) [Compound 232],+ (+: inhibition comprised between 20 and 50%),inactive à 10^−5 M,7.30
O=S(=O)(O)CCCN1CCN(C(COCc2cc(C(F)(F)F)cc(C(F)(F)F)c2)c2ccccc2)CC1 (racemic) [Compound 160],0 (0: inhibition < 20%),inactive à 10^−5 M,7.50
"O=c1[nH]nc(CN2CCN(C(COCc3cc(C(F)(F)F)cc(C(F)(F)F)c3)c3ccccc3)CC2)[nH]1 (stereo not drawn) [Compound 295, 5-{4-[2-(3,5-Bis-trifluoromethyl-benzyloxy)-1-phenyl-ethyl]-piperazin-1-ylmethyl}-2,4-dihydro-[1,2,4]triazol-3-one]",− + (+: inhibition comprised between 20 and 50%),inactive à 10^−5 M,7.20
CC(OCC(c1ccccc1)N1CCN(CCCCc2nnn[nH]2)CC1)c1cc(C(F)(F)F)cc(C(F)(F)F)c1 (stereo not drawn) [Compound 303],+ (+: inhibition comprised between 20 and 50%),inactive à 10^−5 M,8.30
"O=C(O)COCCN1CCN(C(COCc2cc(C(F)(F)F)cc(C(F)(F)F)c2)c2ccccc2)CC1 (racemic) [Compound 235, (2-{4-[2-(3,5-Bis-trifluoromethyl-benzyloxy)-1-phenyl-ethyl]-piperazin-1-yl}-ethoxy)-acetic acid]",0 (0: inhibition < 20%),inactive à 10^−5 M,7.20
"O=C(O)CCCCN1CCN(C(COCc2cc(C(F)(F)F)cc(C(F)(F)F)c2)c2ccccc2)CC1 (racemic) [Compound 233, 5-{4-[2-(3,5-Bis-trifluoromethyl-benzyloxy)-1-phenyl-ethyl]-piperazin-1-yl}-pentanoic acid]",0 (0: inhibition < 20%),inactive à 10^−5 M,7.50
"FC(F)(F)c1cc(COC[C@H](c2ccccc2)N2CCN(CCCCc3nnn[nH]3)CC2)cc(C(F)(F)F)c1 [Compound 298, (S)-1-[2-(3,5-Bis-trifluoromethyl-benzyloxy)-1-phenyl-ethyl]-4-[4-(1H-tetrazol-5-yl)-butyl]-piperazine]",+ (+: inhibition comprised between 20 and 50%),inactive à 10^−5 M,7.80
O=C(O)COCCN1CCN([C@H](COCc2cc(C(F)(F)F)cc(C(F)(F)F)c2)c2ccccc2)CC1 [Compound 236],0 (0: inhibition < 20%),inactive à 10^−5 M,7.10
"O=C(O)CN1CCN(C(COCc2cc(C(F)(F)F)cc(C(F)(F)F)c2)c2ccccc2)CC1 (racemic) [Compound 229, {4-[2-(3,5-Bis-trifluoromethyl-benzyloxy)-1-phenyl-ethyl]-piperazin-1-yl}-acetic acid]",0 (0: inhibition < 20%),inactive à 10^−5 M,7.10
"O=C(O)C1CCC(N2CCN(C(COCc3cc(C(F)(F)F)cc(C(F)(F)F)c3)c3ccccc3)CC2)CC1 (stereo not drawn) [Compound 312, cis- or trans-4-{4-[2-(3,5-Bis-trifluoromethyl-benzyloxy)-1-phenyl-ethyl]-piperazin-1-yl}-cyclohexanecarboxylic acid]",0 (0: inhibition < 20%),inactive à 10^−5 M,7.60
FC(F)(F)c1cc(COC[C@@H](c2ccccc2)N2CCN(CCCCc3nnn[nH]3)CC2)cc(C(F)(F)F)c1 [Compound 299],+ (+: inhibition comprised between 20 and 50%),inactive à 10^−5 M,7.80
O=C(O)c1ccc(CN2CCN([C@H](COCc3cc(C(F)(F)F)cc(C(F)(F)F)c3)c3ccccc3)CC2)cc1 [Compound 243],0 (0: inhibition < 20%),inactive à 10^−5 M,7.20
"CC(C)COC(=O)COCCN1CCN(C(COCc2cc(C(F)(F)F)cc(C(F)(F)F)c2)c2ccccc2)CC1 (stereo not drawn) [Compound 287, (2-{4-[2-(3,5-Bis-trifluoromethyl-benzyloxy)-1-phenyl-ethyl]-piperazin-1-yl}-ethoxy)-acetic acid isobutyl ester]",+ (+: inhibition comprised between 20 and 50%),inactive à 10^−5 M,7.50
FC(F)(F)c1cc(COCC(c2ccccc2)N2CCN(CCOCc3nnn[nH]3)CC2)cc(C(F)(F)F)c1 (stereo not drawn) [Compound 300],+ (+: inhibition comprised between 20 and 50%),inactive à 10^−5 M,7.50
